According to patent US20070049564A1 (Wyeth, priority 2005, published 2007):
Values after ≈ are worked out from the molar mass of the structure shown. Read-outs that look alike come from different tables or passages of the source.

What was measured:
E. coli GC 2235 = test: MIC, broth microdilution; conditions: Escherichia coli
Method: (§1) Antimicrobial susceptibility testing. The in vitro activities of the antibiotics are determined by the broth microdilution method as recommended by the National Committee for Clinical Laboratory Standards (NCCLS) (1). Mueller-Hinton II broth (MHBII)(BBL Cockeysville, Md.) is the medium employed in the testing procedures. Microtiter plates containing serial dilutions of each antimicrobial agent are inoculated with each organism to yield the appropriate density (10^5 CFU/ml) in a 100 μl final volume. The plates are incubated for 18-22 hours at 35° C. in ambient air.
(§2) Representative compounds were first incubated in mouse serum for an hour prior to the in vitro testing against a panel of selected gram-positive and gram-negative bacteria strains. All compounds were also pre-incubated in water for an hour prior to testing as control. Representative compounds of Formula I were incubated in human serum prior to MIC determination.

Staph. = test: Range of MIC for Staph. strains, including MRSA; conditions: Staphylococcus aureus
S. aureus GC 1131 = test: MIC, broth microdilution; conditions: Staphylococcus aureus
S. aureus GC 6466 = test: MIC, broth microdilution; conditions: Staphylococcus aureus
E. faecalis GC 2267 = test: MIC, broth microdilution; conditions: Enterococcus faecalis
E. coli GC 2231 = test: MIC, broth microdilution; conditions: Escherichia coli
S. aureus GC 6467 = test: MIC, broth microdilution; conditions: Staphylococcus aureus
E. coli GC 2233 = test: MIC, broth microdilution; conditions: Escherichia coli
E. coli GC 6465 = test: MIC, broth microdilution; conditions: Escherichia coli
S. aureus GC 1079 = test: MIC, broth microdilution; conditions: Staphylococcus aureus
Method: as §1, §2

S. typhimurium GC 2172 = test: MIC, broth microdilution; conditions: Salmonella enterica, TYPHIMURIUM
E. coli GC 4560 = test: MIC, broth microdilution; conditions: Escherichia coli
Method: as §1, §2

E. coli GC 2236 = test: MIC, broth microdilution; conditions: Escherichia coli
E. coli GC 2234 = test: MIC, broth microdilution; conditions: Escherichia coli
E. faecium GC 4556 = test: MIC, broth microdilution; conditions: Enterococcus faecium
E. coli GC 2203 = test: MIC, broth microdilution; conditions: Escherichia coli
E. coli GC 2272 = test: MIC, broth microdilution; conditions: Escherichia coli
S. pneumoniae* GC 4465 = test: MIC, broth microdilution; conditions: Streptococcus pneumoniae
E. faecalis GC 4555 = test: MIC, broth microdilution; conditions: Enterococcus faecalis
S. epidermidis GC 4935 = test: MIC, broth microdilution; conditions: Staphylococcus epidermidis
[1] = read-out: MINIMAL INHIBITORY CONCENTRATION MIC, Human Serum
[2] = read-out: MINIMAL INHIBITORY CONCENTRATION MIC, Mouse Serum
[3] = read-out: MINIMAL INHIBITORY CONCENTRATION MIC, Water

CCCCOC(=O)N(CC(=O)Nc1cc(N(C)C)c2c(c1O)C(=O)C1=C(O)[C@]3(O)C(=O)C(C(N)=O)=C(O)[C@@H](N(C)C)[C@@H]3C[C@@H]1C2)C(C)(C)C [Example 58, butyl 2-{[(5aR,6aS,7S,10aS)-9-(aminocarbonyl)-4,7-bis(dimethylamino)-1,8,10a,11-tetrahydroxy-10,12-dioxo-5,5a,6,6a,7,10,10a,12-octahydrotetracen-2-yl]amino}-2-oxoethyl(tert-butyl)carbamate]
MIC (E. coli GC 2235; GC2235, read-out: MINIMAL INHIBITORY CONCENTRATION MIC, Human Serum): > 64 µg/mL
MIC (E. coli GC 2235; GC2235, read-out: MINIMAL INHIBITORY CONCENTRATION MIC, Mouse Serum): > 64 µg/mL
MIC (E. coli GC 2235; GC2235, read-out: MINIMAL INHIBITORY CONCENTRATION MIC, Water): > 64 µg/mL
MIC (Staph.; MRSA, read-out: Range of MIC, Staph (Mouse Serum)): 2 to 4 µg/mL (≈ 2.92 to 5.83 µM)
MIC (Staph.; MRSA, read-out: Range of MIC, Staph (Water)): 4 to 8 µg/mL (≈ 5.83 to 11.7 µM)
MIC (Staph.; read-out: Minimum inhibitory concentration (MIC), Staph (Human Serum)): 4 µg/mL (≈ 5.83 µM)
MIC (Staph.; read-out: Minimum inhibitory concentration (MIC), Staph (Water)): 4 to 8 µg/mL (≈ 5.83 to 11.7 µM)
MIC (S. aureus GC 1131; GC1131, read-out: MINIMAL INHIBITORY CONCENTRATION MIC, Human Serum): 4 µg/mL (≈ 5.83 µM)
MIC (S. aureus GC 1131; GC1131, read-out: MINIMAL INHIBITORY CONCENTRATION MIC, Mouse Serum): 2 µg/mL (≈ 2.92 µM)
MIC (S. aureus GC 1131; GC1131, read-out: MINIMAL INHIBITORY CONCENTRATION MIC, Water): 4 µg/mL (≈ 5.83 µM)
MIC (S. aureus GC 6466; GC6466, read-out: MINIMAL INHIBITORY CONCENTRATION MIC, Human Serum): 4 µg/mL (≈ 5.83 µM)
MIC (S. aureus GC 6466; GC6466, read-out: MINIMAL INHIBITORY CONCENTRATION MIC, Mouse Serum): 2 µg/mL (≈ 2.92 µM)
MIC (S. aureus GC 6466; GC6466, read-out: MINIMAL INHIBITORY CONCENTRATION MIC, Water): 4 µg/mL (≈ 5.83 µM)
MIC (E. faecalis GC 2267; GC2267, read-out: MINIMAL INHIBITORY CONCENTRATION MIC, Human Serum): 4 µg/mL (≈ 5.83 µM)
MIC (E. faecalis GC 2267; GC2267, read-out: MINIMAL INHIBITORY CONCENTRATION MIC, Mouse Serum): 2 µg/mL (≈ 2.92 µM)
MIC (E. faecalis GC 2267; GC2267, read-out: MINIMAL INHIBITORY CONCENTRATION MIC, Water): 4 µg/mL (≈ 5.83 µM)
MIC (E. coli GC 2231; GC2231, read-out: MINIMAL INHIBITORY CONCENTRATION MIC, Human Serum): > 64 µg/mL
MIC (E. coli GC 2231; GC2231, read-out: MINIMAL INHIBITORY CONCENTRATION MIC, Mouse Serum): > 64 µg/mL
MIC (E. coli GC 2231; GC2231, read-out: MINIMAL INHIBITORY CONCENTRATION MIC, Water): > 64 µg/mL
MIC (S. aureus GC 6467; GC6467, read-out: MINIMAL INHIBITORY CONCENTRATION MIC, Human Serum): 4 µg/mL (≈ 5.83 µM)
MIC (S. aureus GC 6467; GC6467, read-out: MINIMAL INHIBITORY CONCENTRATION MIC, Mouse Serum): 2 µg/mL (≈ 2.92 µM)
MIC (S. aureus GC 6467; GC6467, read-out: MINIMAL INHIBITORY CONCENTRATION MIC, Water): 4 µg/mL (≈ 5.83 µM)
MIC (E. coli GC 2233; GC2233, read-out: MINIMAL INHIBITORY CONCENTRATION MIC, Human Serum): > 64 µg/mL
MIC (E. coli GC 2233; GC2233, read-out: MINIMAL INHIBITORY CONCENTRATION MIC, Mouse Serum): > 64 µg/mL
MIC (E. coli GC 2233; GC2233, read-out: MINIMAL INHIBITORY CONCENTRATION MIC, Water): > 64 µg/mL
MIC (E. coli GC 6465; GC6465, read-out: MINIMAL INHIBITORY CONCENTRATION MIC, Human Serum): > 64 µg/mL
MIC (E. coli GC 6465; GC6465, read-out: MINIMAL INHIBITORY CONCENTRATION MIC, Mouse Serum): > 64 µg/mL
MIC (E. coli GC 6465; GC6465, read-out: MINIMAL INHIBITORY CONCENTRATION MIC, Water): > 64 µg/mL
MIC (S. aureus GC 1079; GC1079, read-out: MINIMAL INHIBITORY CONCENTRATION MIC, Human Serum): 4 µg/mL (≈ 5.83 µM)
MIC (S. aureus GC 1079; GC1079, read-out: MINIMAL INHIBITORY CONCENTRATION MIC, Mouse Serum): 2 µg/mL (≈ 2.92 µM)
MIC (S. aureus GC 1079; GC1079, read-out: MINIMAL INHIBITORY CONCENTRATION MIC, Water): 8 µg/mL (≈ 11.7 µM)
MIC (S. typhimurium GC 2172; [1]): > 64 µg/mL
MIC (S. typhimurium GC 2172; [2]): > 64 µg/mL
MIC (S. typhimurium GC 2172; [3]): > 64 µg/mL
MIC (E. coli GC 4560; GC4560, read-out: MINIMAL INHIBITORY CONCENTRATION MIC, Human Serum): 4 µg/mL (≈ 5.83 µM)
MIC (E. coli GC 4560; GC4560, read-out: MINIMAL INHIBITORY CONCENTRATION MIC, Mouse Serum): 4 µg/mL (≈ 5.83 µM)
MIC (E. coli GC 4560; GC4560, read-out: MINIMAL INHIBITORY CONCENTRATION MIC, Water): 4 µg/mL (≈ 5.83 µM)
MIC (E. coli GC 2236; GC2236, read-out: MINIMAL INHIBITORY CONCENTRATION MIC, Human Serum): > 64 µg/mL
MIC (E. coli GC 2236; GC2236, read-out: MINIMAL INHIBITORY CONCENTRATION MIC, Mouse Serum): > 64 µg/mL
MIC (E. coli GC 2236; GC2236, read-out: MINIMAL INHIBITORY CONCENTRATION MIC, Water): > 64 µg/mL
MIC (E. coli GC 2234; GC2234, read-out: MINIMAL INHIBITORY CONCENTRATION MIC, Human Serum): > 64 µg/mL
MIC (E. coli GC 2234; GC2234, read-out: MINIMAL INHIBITORY CONCENTRATION MIC, Mouse Serum): > 64 µg/mL
MIC (E. coli GC 2234; GC2234, read-out: MINIMAL INHIBITORY CONCENTRATION MIC, Water): > 64 µg/mL
MIC (E. faecium GC 4556; GC4556, read-out: MINIMAL INHIBITORY CONCENTRATION MIC, Human Serum): 4 µg/mL (≈ 5.83 µM)
MIC (E. faecium GC 4556; GC4556, read-out: MINIMAL INHIBITORY CONCENTRATION MIC, Mouse Serum): 2 µg/mL (≈ 2.92 µM)
MIC (E. faecium GC 4556; GC4556, read-out: MINIMAL INHIBITORY CONCENTRATION MIC, Water): 4 µg/mL (≈ 5.83 µM)
MIC (E. coli GC 2203; GC2203, read-out: MINIMAL INHIBITORY CONCENTRATION MIC, Human Serum): > 64 µg/mL
MIC (E. coli GC 2203; GC2203, read-out: MINIMAL INHIBITORY CONCENTRATION MIC, Mouse Serum): > 64 µg/mL
MIC (E. coli GC 2203; GC2203, read-out: MINIMAL INHIBITORY CONCENTRATION MIC, Water): > 64 µg/mL
MIC (E. coli GC 2272; GC2272, read-out: MINIMAL INHIBITORY CONCENTRATION MIC, Human Serum): > 64 µg/mL
MIC (E. coli GC 2272; GC2272, read-out: MINIMAL INHIBITORY CONCENTRATION MIC, Mouse Serum): > 64 µg/mL
MIC (E. coli GC 2272; GC2272, read-out: MINIMAL INHIBITORY CONCENTRATION MIC, Water): > 64 µg/mL
MIC (S. pneumoniae* GC 4465; [1]): 4 µg/mL (≈ 5.83 µM)
MIC (S. pneumoniae* GC 4465; [2]): 2 µg/mL (≈ 2.92 µM)
MIC (S. pneumoniae* GC 4465; [3]): 2 µg/mL (≈ 2.92 µM)
MIC (E. faecalis GC 4555; GC4555, read-out: MINIMAL INHIBITORY CONCENTRATION MIC, Human Serum): 4 µg/mL (≈ 5.83 µM)
MIC (E. faecalis GC 4555; GC4555, read-out: MINIMAL INHIBITORY CONCENTRATION MIC, Mouse Serum): 4 µg/mL (≈ 5.83 µM)
MIC (E. faecalis GC 4555; GC4555, read-out: MINIMAL INHIBITORY CONCENTRATION MIC, Water): 8 µg/mL (≈ 11.7 µM)
MIC (S. epidermidis GC 4935; GC4935, read-out: MINIMAL INHIBITORY CONCENTRATION MIC, Human Serum): 4 µg/mL (≈ 5.83 µM)
MIC (S. epidermidis GC 4935; GC4935, read-out: MINIMAL INHIBITORY CONCENTRATION MIC, Mouse Serum): 4 µg/mL (≈ 5.83 µM)
MIC (S. epidermidis GC 4935; GC4935, read-out: MINIMAL INHIBITORY CONCENTRATION MIC, Water): 8 µg/mL (≈ 11.7 µM)
